Results taken from US20060094059A1, “Methods for identifying new drug leads and new therapeutic uses for known drugs” (Odyssey Thera, Inc., priority 2004, published 2006).
Where two headings read alike, the source gives them in different places.

What was measured:
[1] = system: prostate adenocarcinoma (PC-3) cells; assay: MTT proliferation assay, prostate; format: cell-based, Human; settings: Tumor Cell Prostate (PC-3), MTT, 120 hours, read-out: Anti-proliferative IC-50
Experimental: (§1) We used these methods to mine the known pharmacopeia for drugs with previously-unsuspected activity against cancer-related pathways. […] Hits from our cell-based screens were tested for antiproliferative activity in up to 5 different human tumor cell lines, as follows. First, drugs with significant activity in the cellular screen(s) were tested for their ability to block proliferation of a human tumor cell line (PC-3) at an initial concentration of 10 micromolar. For drugs with antiproliferative activity in PC-3 cells, dose-response curves to determine the IC50 for antiproliferative activity and additional tumor cell lines were tested to determine the breadth of activity. Methods for assessing the antiproliferative activity of the cell-based drug ‘hits’ are described below.
(§2) Cells were maintained in various media as follows: A549, LoVo and PC-3 (Ham's F12K medium with 2 mM L-glutamine and 1.5 g/L sodium bicarbonate), MIA PaCa-2 (Dulbecco's modified Eagle's medium with 4 mM L-glutamine and 4.5 g/L glucose), U87-MG (MEM+Earle's BSS). Medium for each cell line was supplemented with 10% FBS and […] Penecillin/Streptomycin. All cells were grown in incubators set at 37° C., 5% CO2. Thiazolyl Blue Tetrazolium Bromide (MTT) based proliferation assays were performed to assess the anti-proliferative activities of the compounds on these cells. Cells were seeded in 96 well plates at a density of 750 cells/well 24 hours prior to compound treatment. The cells were incubated with varying concentrations of compounds for 120 hours. […] Drug treatment was performed in 5 replicate wells. Background absorbance was established by wells containing medium but no cells. Vehicle (DMSO) only was used as control. MTT (Sigma-Aldrich, St. Louis, Mo.) was added to each well at a final concentration of 0.5 mg/ml. Following a 2 hour incubation at 37° C., medium in the wells was replaced with 0.15 ml DMSO. The plates were agitated for 15 min using a microtiter plate shaker.

Chk1:CDC25C = assay: Protein-fragment complementation assay Chk1:CDC25C; format: cell-based, human; settings: hit in CDC25C/Chk1 assay (with or without CPT not stated); drugs screened at 10 micromolar
From the text: (§3) To construct dynamic assays for protein-protein complexes, we used a protein-fragment complementation assay strategy (PCAs) in intact human cells. (A variety of other suitable assays, and reporter options, are described in detail below.) The principle of PCA is that complementary polypeptide fragments (F[1] and F[2]) of a reporter protein or enzyme will fold into an active form only if fused to two proteins which interact and bring the complementary fragments of the reporter protein into proximity. Reconstitution of the fragments of the reporter protein generates a fluorescent signal that can be quantified in intact cells, and the amount of the signal is proportional to the amount of the protein-protein complex used in constructing the assay. Given a suitable reporter type, the subcellular location of the complex can also be measured.
(§4) Reporter fragments for PCA were generated by oligonucleotide synthesis (Blue Heron Biotechnology, Bothell, Wash.), starting with the sequence of yellow fluorescent protein (YFP). First, oligonucleotides coding for polypeptide fragments YFP[1]and YFP[2] […] Next, PCR mutagenesis was used to generate the mutant fragments IFP[1] and IFP[2]. The IFP[1] fragment corresponds to YFP[1]-(F46L, F64L, M153T) and the IFP[2] fragment corresponds to YFP[2]-(V163A, S175G). […]

[2] = system: non-small cell lung carcinoma (A549) cells; assay: MTT proliferation assay, NSCLC; format: cell-based, Human; settings: Tumor Cell NSCLC (A549), 120 hours, read-out: Anti-proliferative IC-50
Experimental: as §2

[3] = system: glioblastoma (U-87 MG) cells; assay: MTT proliferation assay, glioblastoma; format: cell-based; settings: Homo sapiens, Tumor Cell Glioblastoma (U-87 MG), 120 hours, read-out: Anti-proliferative IC-50
Experimental: as §2

EGFR:Grb2 = assay: Cell-based assay EGFR:Grb2; set-up: species or system human; settings: hit in EGFR/Grb2 assay; drugs screened at 10 micromolar
From the text: as §3, §4

[4] = system: pancreatic carcinoma (MIA PaCa-2) cells; assay: MTT proliferation assay, pancreatic; format: cell-based, Human; settings: Tumor Cell Pancreatic (MIA PaCa-2), 120 hours, read-out: Anti-proliferative IC-50
Experimental: as §2

[5] = system: colon adenocarcinoma (LoVo) cells; assay: MTT proliferation assay, colon; format: cell-based, Human; settings: Tumor Cell Colon (LoVo), 120 hours, read-out: Anti-proliferative IC-50
Experimental: as §2

PAK4:Cofilin = assay: Protein-fragment complementation assay PAK4:Cofilin; format: cell-based, human; settings: hit in PAK4/CFL assay; drugs screened at 10 micromolar
From the text: as §3
(§5) Reporter fragments for PCA were generated by oligonucleotide synthesis (Blue Heron Biotechnology, Bothell, Wash.), starting with the sequence of yellow fluorescent protein (YFP). First, oligonucleotides coding for polypeptide fragments YFP[1]and YFP[2] […] Next, PCR mutagenesis was used to generate the mutant fragments IFP[1] and IFP[2]. The IFP[1] fragment corresponds to YFP[1]-(F46L, F64L, M153T) and the IFP[2] fragment corresponds to YFP[2]-(V163A, S175G). […] The YFP[1], YFP[2], IFP[1] and IFP[2] fragments were amplified by PCR to incorporate restriction sites and a linker sequence, described below, in configurations that would allow fusion of a gene of interest to either the 5′- or 3′-end of each reporter fragment. The reporter-linker fragment cassettes were subcloned into a mammalian expression vector (pcDNA3.1Z, Invitrogen) that had been modified to incorporate the replication origin (oriP) of the Epstein Barr virus (EBV). […] Additionally, these vectors still retain the SV40 origin, allowing for episomal expression in cell lines expressing the SV40 large T antigen (e.g. HEK293T, Jurkat or COS).
(§6) PCA fusion constructs were prepared for a proteins known to participate in cellular pathways that have been described in the scientific literature as being linked to cancer. The selection of protein-protein complexes used, and the rationale for their use, is provided in Table 1 and the gene identifiers for the cDNAs used in assay construction are provided in Table 2. The full coding sequence for each gene of interest was amplified by PCR from a sequence-verified full-length cDNA. Resulting PCR products were column purified (Centricon), digested with appropriate restriction enzymes to allow directional cloning, and fused in-frame to either the 5′ or 3′-end of YFP[1], YFP[2], IFP[1] or IFP[2] through a linker encoding a flexible 10 amino acid peptide (Gly.Gly.Gly.Gly.Ser)2. […] Recombinants in the host strains DH5-alpha (Invitrogen, Carlsbad, Calif.) or XL1 Blue MR (Stratagene, La Jolla, Calif.) were screened by colony PCR, and clones containing inserts of the correct size were subjected to end sequencing to confirm the presence of the gene of interest and in-frame fusion to the appropriate reporter fragment. A subset of fusion constructs were selected for full-insert sequencing by primer walking. DNAs were isolated using Qiagen MaxiPrep kits (Qiagen, Chatsworth, Calif.). PCR was used to assess the integrity of each fusion construct, by combining the appropriate gene-specific primer with a reporter-specific primer to confirm that the correct gene-fusion was present and of the correct size with no internal deletions.
(§7) HEK293 cells were maintained in MEM alpha medium (Invitrogen) supplemented with 10% FBS (Gemini Bio-Products), 1% penicillin, and 1% streptomycin, and grown in a 37° C. incubator equilibrated to 5% CO2. […] Up to 100 ng of the complementary YFP or IFP-fragment fusion vectors were co-transfected using Fugene 6 (Roche) according to the manufacturer's protocol.

CDC42:PAK4 complexes = assay: Protein-fragment complementation assay CDC42:PAK4; format: cell-based, human; settings: for Assay activity: hit in CDC42/PAK4 assay, drugs screened at 10 micromolar
From the text: as §3, §5, §6, §7

human tumor cell lines = assay: MTT proliferation assay and phase contrast images, cell line not given (FIGS. 5-10); format: cell-based; settings: treated cells vs. DMSO control, cell line not named
Experimental: as §1
Cells were maintained in various media as follows: A549, LoVo and PC-3 (Ham's F12K medium with 2 mM L-glutamine and 1.5 g/L sodium bicarbonate), MIA PaCa-2 (Dulbecco's modified Eagle's medium with 4 mM L-glutamine and 4.5 g/L glucose), U87-MG (MEM+Earle's BSS). Medium for each cell line was supplemented with 10% FBS and […] Penecillin/Streptomycin. All cells were grown in incubators set at 37° C., 5% CO2. Thiazolyl Blue Tetrazolium Bromide (MTT) based proliferation assays were performed to assess the anti-proliferative activities of the compounds on these cells. Cells were seeded in 96 well plates at a density of 750 cells/well 24 hours prior to compound treatment. The cells were incubated with varying concentrations of compounds for 120 hours. Compound concentrations range from 0.03 to 100 microM (half log increments) except for alpha-Tomatine (0.001-100 microM, half log increments), Neriifolin (0.0002-100 microM) and Peruvoside (0.01-100 microM). Drug treatment was performed in 5 replicate wells. Background absorbance was established by wells containing medium but no cells. Vehicle (DMSO) only was used as control. MTT (Sigma-Aldrich, St. Louis, Mo.) was added to each well at a final concentration of 0.5 mg/ml. Following a 2 hour incubation at 37° C., medium in the wells was replaced with 0.15 ml DMSO. The plates were agitated for 15 min using a microtiter plate shaker. […] Mean absorbance values were calculated from 5 replicate wells of each drug treatment following subtraction of background absorbance from blank samples and plotted as a percentage of control.

Cofilin:LIMK2 = assay: Protein-fragment complementation assay Cofilin:LIMK2; format: cell-based, human; settings: hit in Cofilin/LIMK2 assay; drugs screened at 10 micromolar
From the text: as §3, §4

HSP90:Eef2k = assay: Protein-fragment complementation assay Hsp90:Eef2k; format: cell-based, human; settings: hit in HSP90/Eef2k assay; drugs screened at 10 micromolar
From the text: as §3
as §5, with “COS). […]” for “COS).”

CDC25C:Cdc2 = assay: Protein-fragment complementation assay CDC25C:Cdc2; format: cell-based, human; settings: hit in CDC2/CDC25C assay; drugs screened at 10 micromolar
From the text: as §3, §4

BAD:BID = assay: Protein-fragment complementation assay BAD:BID; format: cell-based, human; settings: hit in BAD/BID assay; drugs screened at 10 micromolar
From the text: as §3, §4

MAX:MYC = assay: Protein-fragment complementation assay MAX:MYC; format: cell-based, human; settings: hit in MYC/MAX assay; drugs screened at 10 micromolar
From the text: as §3, §4

Row | SMILES | IC50 ([1]; Homo sapiens) | IC50 ([2]; Homo sapiens) | IC50 [3] | IC50 ([4]; Homo sapiens) | IC50 ([5]; Homo sapiens) | Assay activity (PAK4:Cofilin) | Assay activity (CDC42:PAK4 complexes) | cell count (phase contrast images) (human tumor cell lines) | other results
1 | CC1(C)CCC2=C(O1)c1ccccc1C(=O)C2=O [beta-Lapachone] | 630 nM | 230 nM | 860 nM | 377 nM | 1400 nM |  |  |  | Assay activity (Chk1:CDC25C): CDC25C/Chk1; Assay activity (EGFR:Grb2): EGFR/Grb2,
2 | CCCCCCCCNC(C)C(O)c1ccc(SC(C)C)cc1 (centres unmarked) [Suloctidil] | 1850 nM | 2230 nM | 1120 nM | 1930 nM | 1130 nM | PAK4/CFL, | CDC42/PAK4 |  | 
3 | O=C(CCCN1CC=C(n2c(=O)[nH]c3ccccc32)CC1)c1ccc(F)cc1 [Droperidol] | 7680 nM | 24300 nM | 24600 nM | 8800 nM | 25800 nM | PAK4/CFL |  |  | 
4 | Fc1ccc(C(c2ccc(F)cc2)N2CCN(C/C=C/c3ccccc3)CC2)cc1 [Flunarizine] |  |  |  |  |  | PAK4/CFL, | CDC42/PAK4 |  | 
5 | CC(C)(C)c1ccc(C(O)CCCN2CCC(C(O)(c3ccccc3)c3ccccc3)CC2)cc1 (centres unmarked) [Terfenadine] |  | 550 nM | 380 nM | 350 nM | 990 nM |  | CDC42/PAK4 | reduced the cell count | level of CDC42:PAK4 complexes (intensity of the fluorescence) (CDC42:PAK4 complexes; FIG. 3F, compared with the vehicle alone): decrease in the level
6 | CC(C)c1c(C(=O)Nc2ccccc2)c(-c2ccccc2)c(-c2ccc(F)cc2)n1CC[C@@H](O)C[C@@H](O)CC(=O)O [Atorvastatin] |  |  | 4600 nM |  |  | CFL1/PAK4 |  | decreased the cell count | Assay activity (Cofilin:LIMK2): CFL1/LIMK2,
7 | CN[C@H]1CC[C@@H](c2ccc(Cl)c(Cl)c2)c2ccccc21 [Sertraline] |  |  |  |  |  |  |  | reduced the cell count | Assay activity (HSP90:Eef2k): Eef2K/hsp90,; Assay activity (CDC25C:Cdc2): CDC2/CDC25C,; Assay activity (EGFR:Grb2): EGFR/Grb2,; Assay activity (BAD:BID): BAD/BID,; Assay activity (MAX:MYC): MAX/MYC
8 | COC(=O)Nc1nc2ccc(C(=O)c3ccccc3)cc2[nH]1 [Mebendazole] | 270 nM | 180 nM |  | 130 nM | 70 nM | PAK4/CFL |  |  | 
9 | CO[C@H]1[C@H](O)[C@H](O[C@H]2CC[C@@]3(C)[C@H](CC[C@@H]4[C@@H]3CC[C@]3(C)[C@@H](C5=CC(=O)OC5)CC[C@]43O)C2)O[C@@H](C)[C@@H]1O [Neri$$olin, Neriifolin] |  |  |  |  |  | PAK4/CFL, | CDC42/PAK4 |  | IC50 [1]: 11 nM; IC50 [2]: 5 nM; IC50 [4]: 4 nM; IC50 [5]: 18 nM
